Patent publication US20250281424A1 (New York Blood Center, Inc, priority 2020, published 2025)
Like-named read-outs stand apart in the source and are kept apart here.

Molecular target: T1, human PF4 (Homo sapiens, UniProt P02776)
T1 construct: PF4 is a 70 amino acid, lysine-rich 7.8 kDa platelet-specific protein; made in house; host or cells: Escherichia coli BL21DE3 pLysS (pT7-7) and/or Drosophila S2 cells
T1 sequence (P02776 32-101): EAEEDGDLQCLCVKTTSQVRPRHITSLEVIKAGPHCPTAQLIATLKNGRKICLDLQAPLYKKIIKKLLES
Test: Inhibition of PF4 tetramer formation (BS3 cross-linking, SDS-PAGE)
Type: biochemical
Settings: for inhibition at 1 µM: 1 μM inhibitor; for inhibition at 3 µM: 3 μM inhibitor (column A); for inhibition at 5 µM: 5 μM inhibitor; for inhibition at 10 µM: 10 μM inhibitor (column A)
How it was run: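 Monomer, dimer, trimer and tetramer fractions were quantified by densitometry after reducing 12% SDS-PAGE of BS3-cross-linked (0.2 mM, 30 min, room temperature) PF4. Before cross-linking, 10 μg/ml E. coli-expressed human WT PF4 in PBS was exposed to compound for 15 min at 37° C or 60 min at room temperature; controls lacked compound.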

[1] = read-out: % inhibition of PF4 tetramer formation at single concentration of inhibitor
[2] = read-out: IC50 of PF4 tetramer formation inhibition

Row | SMILES | inhibition at 1 µM [1] | inhibition at 3 µM [1] | IC50 [2] | other results
1 | CC(C)(C)OC(=O)NCC(=O)C1C(=O)c2ccc(Oc3ccc4c(c3)C(=O)C(C(=O)CNC(=O)OC(C)(C)C)C4=O)cc2C1=O (stereo not shown) [Example 272, tert-butyl N-[2-(5-{[2-(2-{[(tert-butoxy)carbonyl]amino}acetyl)-1,3-dioxo-2,3-dihydro-1H-inden-5-yl]oxy}-1,3-dioxo-2,3-dihydro-1H-inden-2-yl)-2-oxoethyl]carbamate] | 26% | 56% | – | –
2 | C[C@H]1C[C@@H](C(=O)C2C(=O)c3ccc(C(=O)c4ccc5c(c4)C(=O)C(C(=O)[C@@H]4C[C@H](C)CN4C(=O)OC(C)(C)C)C5=O)cc3C2=O)N(C(=O)OC(C)(C)C)C1 (stereo partly drawn) [Example 132, tert-butyl (2S,4S)-2-(5-{2-[(2S,4S)-1-[(tert-butoxy)carbonyl]-4-methylpyrrolidine-2-carbonyl]-1,3-dioxo-2,3-dihydro-1H-indene-5-carbonyl}-1,3-dioxo-2,3-dihydro-1H-indene-2-carbonyl)-4-methylpyrrolidine-1-carboxylate] | – | – | 3.5 µM | inhibition at 5 µM [1]: 79%; inhibition at 10 µM [1]: 88%
3 | CC(=O)C1C(=O)c2ccc(-c3ccc4c(c3)C(=O)C(C(C)=O)C4=O)cc2C1=O (stereo not shown) [Example 10, 2-acetyl-5-(2-acetyl-2,3-dihydro-1,3dioxo-1h-inden-5-yl)-2,3-dihydro-1,3-dioxo-1h-indene] | – | – | 1.35 µM | –
4 | CC(C)(C)OC(=O)N1CC[C@H](C(=O)C2C(=O)c3ccc(C(=O)c4ccc5c(c4)C(=O)C(C(=O)[C@H]4CCN(C(=O)OC(C)(C)C)C4)C5=O)cc3C2=O)C1 (stereo partly drawn) [Example 373, tert-butyl (3S)-3-(5-{2-[(3S)-1-[(tert-butoxy)carbonyl]pyrrolidine-3-carbonyl]-1,3-dioxo-2,3-dihydro-1H-indene-5-carbonyl}-1,3-dioxo-2,3-dihydro-1H-indene-2-carbonyl)pyrrolidine-1-carboxylate] | 5% | 3% | – | –
5 | CC(C)(C)OCC(=O)C1C(=O)c2ccc(S(=O)(=O)c3ccc4c(c3)C(=O)C(C(=O)COC(C)(C)C)C4=O)cc2C1=O (stereo not shown) [Example 231, 2-[2-(tert-butoxy)acetyl]-5-({2-[2-(tert-butoxy)acetyl]-1,3-dioxo-2,3-dihydro-1H-inden-5-yl}sulfonyl)-2,3-dihydro-1H-indene-1,3-dione] | 69% | 65% | 1.71 µM | –
6 | O=C(c1ccc2c(c1)C(=O)C(C(=O)C1CCN(C(=O)OCc3ccccc3)C1)C2=O)c1ccc2c(c1)C(=O)C(C(=O)C1CCN(C(=O)OCc3ccccc3)C1)C2=O (stereo not shown) [Example 159, benzyl 3-[5-(2-{1-[(benzyloxy)carbonyl]pyrrolidine-3-carbonyl}-1,3-dioxo-2,3-dihydro-1H-indene-5-carbonyl)-1,3-dioxo-2,3-dihydro-1H-indene-2-carbonyl]pyrrolidine-1-carboxylate] | – | – | 3.8 µM | inhibition at 5 µM [1]: 85%; inhibition at 10 µM [1]: 90%
7 | O=C(COc1ccccc1)C1C(=O)c2ccc(S(=O)(=O)c3ccc4c(c3)C(=O)C(C(=O)COc3ccccc3)C4=O)cc2C1=O (stereo not shown) [Example 144, 5-{[1,3-dioxo-2-(2-phenoxyacetyl)-2,3-dihydro-1H-inden-5-yl]sulfonyl}-2-(2-phenoxyacetyl)-2,3-dihydro-1H-indene-1,3-dione] | – | – | 4.7 µM | –
8 | COCCC(=O)C1C(=O)c2ccc(C(=O)c3ccc4c(c3)C(=O)C(C(=O)CCOC)C4=O)cc2C1=O (stereo not shown) [Example 176, 2-(3-methoxypropanoyl)-5-[2-(3-methoxypropanoyl)-1,3-dioxo-2,3-dihydro-1H-indene-5-carbonyl]-2,3-dihydro-1H-indene-1,3-dione] | – | – | – | inhibition at 5 µM [1]: 21%; inhibition at 10 µM [1]: 77%
9 | O=C(c1ccc2c(c1)C(=O)C(C(=O)Nc1ccc(I)cc1)C2=O)c1ccc2c(c1)C(=O)C(C(=O)Nc1ccc(I)cc1)C2=O (stereo not shown) [Example 105, N-(4-iodophenyl)-5-{2-[(4-iodophenyl)carbamoyl]-1,3-dioxo-2,3-dihydro-1H-indene-5-carbonyl}-1,3-dioxo-2,3-dihydro-1H-indene-2-carboxamide] | – | – | 2.8 µM | –
10 | CC(C)(C)OC(=O)N1CCC[C@@H]1C(=O)C1C(=O)c2ccc(C(=O)c3ccc4c(c3)C(=O)C(C(=O)[C@H]3CCCN3C(=O)OC(C)(C)C)C4=O)cc2C1=O (stereo partly shown) [Example 161] | – | – | 1 µM | inhibition at 5 µM [1]: 87%; inhibition at 10 µM [1]: 93%
11 | CO[C@@H](C)C(=O)C1C(=O)c2ccc(Oc3ccc4c(c3)C(=O)C(C(=O)[C@H](C)OC)C4=O)cc2C1=O (stereo partly drawn) [Example 248, 2-[(2S)-2-methoxypropanoyl]-5-({2-[(2S)-2-methoxypropanoyl]-1,3-dioxo-2,3-dihydro-1H-inden-5-yl}oxy)-2,3-dihydro-1H-indene-1,3-dione] | 26% | 56% | – | IC50: 3 µM
12 | CC(=O)C1(C(=O)OC(C)C)C(=O)c2ccc(Oc3ccc4c(c3)C(=O)CC4=O)cc2C1=O (stereo not shown) [Example 8, ethyl 2-acetyl-5-(1,3-dioxo-indan-5-yloxy)-1,3-dioxo-indan-2-carboxylic acid isopropyl ester] | – | – | 3.4 µM | –
13 | O=C(c1ccc2c(c1)C(=O)C(C(=O)NCC1CC1)C2=O)c1ccc2c(c1)C(=O)C(C(=O)NCC1CC1)C2=O (stereo not shown) [Example 76, N-(cyclopropylmethyl)-5-{2-[(cyclopropylmethyl)carbamoyl]-1,3-dioxo-2,3-dihydro-1H-indene-5-carbonyl}-1,3-dioxo-2,3-dihydro-1H-indene-2-carboxamide] | – | – | 2.1 µM | –
14 | CC(C)(C)OC(=O)N1CCC[C@@H]1C(=O)C1C(=O)c2ccc(S(=O)(=O)c3ccc4c(c3)C(=O)C(C(=O)[C@H]3CCCN3C(=O)OC(C)(C)C)C4=O)cc2C1=O (stereo partly drawn) [Example 162, tert-butyl (2R)-2-[5-({2-[(2R)-1-[(tert-butoxy)carbonyl]pyrrolidine-2-carbonyl]-1,3-dioxo-2,3-dihydro-1H-inden-5-yl}sulfonyl)-1,3-dioxo-2,3-dihydro-1H-indene-2-carbonyl]pyrrolidine-1-carboxylate] | – | – | 2.6 µM | inhibition at 5 µM [1]: 86%; inhibition at 10 µM [1]: 94%
15 | CC(C)(C)OC(=O)N[C@@H](Cc1ccccc1)C(=O)C1C(=O)c2ccc(S(=O)(=O)c3ccc4c(c3)C(=O)C(C(=O)[C@H](Cc3ccccc3)NC(=O)OC(C)(C)C)C4=O)cc2C1=O (stereo partly drawn) [Example 158, tert-butyl N-[(2S)-1-[5-({2-[(2S)-2-{[(tert-butoxy)carbonyl]amino}-3-phenylpropanoyl]-1,3-dioxo-2,3-dihydro-1H-inden-5-yl}sulfonyl)-1,3-dioxo-2,3-dihydro-1H-inden-2-yl]-1-oxo-3-phenylpropan-2-yl]carbamate] | – | – | 1.4 µM | inhibition at 5 µM [1]: 100%; inhibition at 10 µM [1]: 100%
16 | O=C(c1ccc2c(c1)C(=O)C(C(=O)Nc1cccc(Cl)c1)C2=O)c1ccc2c(c1)C(=O)C(C(=O)Nc1cccc(Cl)c1)C2=O (stereo not shown) [Example 79, N-(3-chlorophenyl)-5-{2-[(3-chlorophenyl)carbamoyl]-1,3-dioxo-2,3-dihydro-1H-indene-5-carbonyl}-1,3-dioxo-2,3-dihydro-1H-indene-2-carboxamide] | – | – | 1 µM | –
17 | CCOC(=O)NC(=O)C1C(=O)c2ccc(C(=O)c3ccc4c(c3)C(=O)C(C(=O)NC(=O)OCC)C4=O)cc2C1=O (stereo not shown) [Example 16, 5,5′-carbonylbis((1,3-dioxo-indane-2-carbonyl)-carbamic acid ethyl ester)] | – | – | 20 µM | inhibition at 30 µM (30 μM inhibitor, read-out: % inhibition of PF4 tetramer formation at single concentration of inhibitor): 78%

Second part, led by results:

Row | inhibition at 1 µM [1] | inhibition at 3 µM [1] | SMILES | IC50 [2] | other results
18 | 1% | 4% | COCCOCCNCC(=O)C1C(=O)c2ccc(C(=O)c3ccc4c(c3)C(=O)C(C(=O)CNCCOCCOC)C4=O)cc2C1=O (stereo not shown) [Example 393, 2-(2-{[2-(2-methoxyethoxy)ethyl]amino}acetyl)-5-[2-(2-{[2-(2-methoxyethoxy)ethyl]amino}acetyl)-1,3-dioxo-2,3-dihydro-1H-indene-5-carbonyl]-2,3-dihydro-1H-indene-1,3-dione] | – | –
19 | 21% | 72% | COCC(=O)C1C(=O)c2ccc(C(=O)c3ccc4c(c3)C(=O)C(C(=O)COC)C4=O)cc2C1=O (stereo not shown) [Example 234, 2-(2-methoxyacetyl)-5-[2-(2-methoxyacetyl)-1,3-dioxo-2,3-dihydro-1H-indene-5-carbonyl]-2,3-dihydro-1H-indene-1,3-dione] | 1.51 µM | –
20 | 17% | 21% | CC(=O)OC[C@H]1O[C@@H](OC(C)=O)[C@H](NC(=O)C2C(=O)c3ccc(S(=O)(=O)c4ccc5c(c4)C(=O)C(C(=O)N[C@H]4[C@H](OC(C)=O)O[C@H](COC(C)=O)[C@@H](OC(C)=O)[C@@H]4OC(C)=O)C5=O)cc3C2=O)[C@@H](OC(C)=O)[C@@H]1OC(C)=O (stereo partly drawn) [Example 400, [(2R,3S,4R,5R,6S)-3,4,6-tris(acetyloxy)-5-{5-[(1,3-dioxo-2-{[(2S,3R,4R,5S,6R)-2,4,5-tris(acetyloxy)-6-[(acetyloxy)methyl]oxan-3-yl]carbamoyl}-2,3-dihydro-1H-inden-5-yl)sulfonyl]-1,3-dioxo-2,3-dihydro-1H-indene-2-amido}oxan-2-yl]methyl acetate] | – | –
21 | 13% | 26% | NCC(=O)C1C(=O)c2ccc(Oc3ccc4c(c3)C(=O)C(C(=O)CN)C4=O)cc2C1=O (stereo not shown) [Example 326, 2-(2-aminoacetyl)-5-{[2-(2-aminoacetyl)-1,3-dioxo-2,3-dihydro-1H-inden-5-yl]oxy}-2,3-dihydro-1H-indene-1,3-dione] | – | –
22 | 21% | 43% | O=C(c1ccc2c(c1)C(=O)C(Br)C2=O)c1ccc2c(c1)C(=O)C(Br)C2=O (stereo not shown) [Example 244, 2-bromo-5-(2-bromo-1,3-dioxo-2,3-dihydro-1H-indene-5-carbonyl)-2,3-dihydro-1H-indene-1,3-dione] | – | –
